Experimental data reported in patent publication US8110570B2, “Modulators of acetyl-coenzyme A carboxylase and methods of use thereof” (Cropsolution, Inc., priority 2008, dated 2012).

Key:
HepG2 cells = assay: Fatty acid synthesis assay, 14C-acetate incorporation into phospholipids; assay type: cell-based; conditions: Homo sapiens, 24 h, read-out: inhibition of radiolabel incorporation into phospholipids
From the text: The in vivo ACC inhibitory activity of compounds in this invention can be confirmed in cultured cells using standard procedures that are well known to those skilled in the art. For example, since ACC catalyzes the first committed step in fatty acid biosynthesis, the in vivo activity of compounds can be confirmed by measuring their ability to prevent the formation of radiolabeled fatty acids from radiolabeled acetate in cultured human hepatoma cells (HepG2). In addition, since the malonyl-CoA produced by ACC inhibits fatty acid oxidation, the in vivo ACC inhibitory activity of compounds can be further confirmed by measuring the stimulation of fatty acid oxidation in cultured mouse myoblast cells (C2C12).
Fatty acid synthesis assays are performed with slight modifications to published procedures (Beckers et al., Cancer Res, 2007, 67: 8180-8187; Wang, J Lipid Res., 2006, 47:2028-41). Briefly, HepG2 cells are grown in Dulbecco's modified eagles medium containing 10% fetal calf serum in 6-well culture plates. Cells are treated for 24 h with test compounds added as DMSO stock solutions to a final DMSO concentration of 0.5% (v/v). After test compound incubation, ^14C—[2]-acetate is added (3 μCi/6 well plate) and cells are further incubated for 4 hrs. Cells are then harvested in 40% methanol and assayed for total protein. Total lipids are extracted with chloroform:methanol (2:1) and ^14C-radioactivity is quantified in the aqueous and organic phases. Total lipids in the organic phase are separated by thin-layer chromatography (TLC, silica gel 60A) using hexane:ether:acetic acid (90:30:1) as the mobile phase. Radioactivity distribution of lipid classes on TLC plates is quantified by phosphorimaging (Molecular Dynamics Storm 820). Compound 6 inhibited radiolabel incorporation into phospholipids 32% and 14% at 10 μM and 1 μM, respectively, while Compound 2 inhibited radiolabel incorporation into phospholipids 93% and 42% at 10 μM and 1 μM, respectively.

[1] = test system: beta-hydroxybutyrate levels; assay: In vivo elevation of rat serum beta-hydroxybutyrate levels; conditions: orally at 30 mg/Kg
From the text: Determination of blood levels of ketone bodies after oral dosing of ACC inhibitors. Compounds of this invention, and salts thereof, can be evaluated for their potential as treatments for diseases caused by reduced neuronal metabolism by assessing their effects on plasma levels of beta-hydroxybutyrate. Inhibition of ACC leads to increased rates of fatty acid oxidation and therefore production of beta-hydroxybutyrate. Rats (Sprague Rats (Sprague Dawley, Charles River Laboratories, Boston, Mass.) are acclimated for at least 4 days prior to dosing. For example, animals given food and water ad libitum are treated at volume of 1.0 mL/200 g of body weight with either an aqueous solution containing 0.5% methyl cellulose (vehicle) or an aqueous solution containing 0.5% methyl cellulose containing test compound. At various times after compound administration whole blood is collected from a jugular vein catheter into lithium heparin coated tubes, mixed gently, kept on ice and centrifuged (2500×g, 15 minutes at 4° C.) within 1 hour of collection. The isolated plasma is kept frozen at −20° C. until further processing. Plasma levels of beta-hydroxybutyrate are determined using a beta-hydroxybutyrate detection kit following the manufacturer's directions (StanBio Laboratory, Boerne, Tex.). Compounds of the present invention, and salts thereof, were assessed for their ability to increase serum beta-hydroxybutyrate levels as described above.

[2] = test system: MDA-MB-231 human breast cancer cells; assay: MTT Cell Proliferation Assay; assay type: cell-based; conditions: 72 hours, read-out: Percent of Control MDA-MB-231
How it was run: (§1)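 Cells seeded and grown 24 h at 37 °C, 5% CO2, then exposed to compound for 72 h. Viability read by MTT reduction (4 h) after overnight lysis/solubilization. Results expressed as percent of control versus compound concentration.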

[3] = test system: PC-3 human prostate cancer cells; assay: MTT Cell Proliferation Assay; assay type: cell-based; conditions: 72 hours, read-out: Percent of Control PC-3
How it was run: as §1

[4] = test system: HCT-116 human colon cancer cells; assay: MTT Cell Proliferation Assay; assay type: cell-based; conditions: 72 hours, read-out: Percent of Control HCT-116
How it was run: as §1

[5] = test system: A2780 human ovary cancer cells; assay: MTT Cell Proliferation Assay; assay type: cell-based; conditions: 72 hours, read-out: Percent of Control A2780
How it was run: as §1

Question: What does the source list for `COc1cc(C(=O)N2CCC3(CC2)NC(=O)c2cc(Br)ccc2O3)nc2c(OC)cccc12` [Compound 2, 6-Bromo-1′-[(4,8-dimethoxyquinoline-2-yl)carbonyl]spiro[2H-1,3-benzoxazine-2,4′-piperidine]-4(3H)-one]?
Answer: inhibition at 1 µM (HepG2 cells; HepG2, 1 μM): 42%; inhibition at 10 µM (HepG2 cells; HepG2, 10 μM): 93%

Question: With `COc1ccc2c(c1)C(=O)NC1(CCN(C(=O)c3cc(OC)c4cccc(OC)c4n3)CC1)O2` [Compound 150] as the compound, how does the “Average beta-Hydroxybutyrate Concentration” value ([1]; 15 min) read?
Answer: 0.160 mM

Question: What about the “Average beta-Hydroxybutyrate Concentration” value ([1]; 30 min) of the same compound?
Answer: 0.214 mM

Question: And the “Average beta-Hydroxybutyrate Concentration” value ([1]; 60 min)?
Answer: 0.147 mM

Question: What about the “Average beta-Hydroxybutyrate Concentration” value ([1]; 120 min) of the same compound?
Answer: 0.140 mM

Question: What about the “Average beta-Hydroxybutyrate Concentration” value ([1]; 240 min) of the same compound?
Answer: 0.102 mM

Question: What about the activity at 3.3 µM [2] of the same compound?
Answer: 76.1%

Question: And the activity at 10 µM [2]?
Answer: 50.2%

Question: And the activity at 3.3 µM [3]?
Answer: 60.7%

Question: What about the activity at 10 µM [3] of the same compound?
Answer: 47.7%

Question: And the activity at 3.3 µM [4]?
Answer: 70.2%

Question: What about the activity at 10 µM [4] of the same compound?
Answer: 59.4%

Question: What about the activity at 3.3 µM [5] of the same compound?
Answer: 86.5%

Question: What about the activity at 10 µM [5] of the same compound?
Answer: 57.6%

Question: `COc1cc(C(=O)N2CCC3(CC2)NC(=O)c2cc(OC(C)C)ccc2O3)nc2c(OC)cccc12` [Compound 169] was tested. Which “Average beta-Hydroxybutyrate Concentration” value ([1]; 15 min) did it give?
Answer: 0.149 mM

Question: What about the “Average beta-Hydroxybutyrate Concentration” value ([1]; 30 min) of the same compound?
Answer: 0.201 mM

Question: And the “Average beta-Hydroxybutyrate Concentration” value ([1]; 60 min)?
Answer: 0.135 mM

Question: What about the “Average beta-Hydroxybutyrate Concentration” value ([1]; 120 min) of the same compound?
Answer: 0.126 mM

Question: What about the “Average beta-Hydroxybutyrate Concentration” value ([1]; 240 min) of the same compound?
Answer: 0.118 mM

Question: What about the activity at 3.3 µM [2] of the same compound?
Answer: 81.4%

Question: And the activity at 10 µM [2]?
Answer: 47.8%

Question: What about the activity at 3.3 µM [3] of the same compound?
Answer: 54.7%

Question: What about the activity at 10 µM [3] of the same compound?
Answer: 52.1%

Question: What about the activity at 3.3 µM [4] of the same compound?
Answer: 57.2%

Question: What about the activity at 10 µM [4] of the same compound?
Answer: 45%

Question: What about the activity at 3.3 µM [5] of the same compound?
Answer: 80.5%

Question: What about the activity at 10 µM [5] of the same compound?
Answer: 56.5%
